According to ChEMBL document CHEMBL4342517, “Design, Synthesis, and Mechanism Study of Benzenesulfonamide-Containing Phenylalanine Derivatives as Novel HIV-1 Capsid Inhibitors with Improved Antiviral Activities” (J Med Chem, 2020):
Activity calls are given as the source filed them. The rule behind the calls is not given here.

Legend:
[1] = Cmax in Sprague-Dawley rat at 20 mg/kg, po measured during 5 mins to 12 hrs by LC-MS analysis; type: ADME, organism-based; parameters: dose 20 mg/kg, route oral; details: in vivo
[2] = Acute toxicity in Kunming mouse assessed as induction of abnormal behaviors by measuring lethargy at 1000 mg/kg, ig administered as single dose; type: organism-based; details: in vivo, po
[3] = Acute toxicity in Kunming mouse assessed as induction of animal death at 1000 mg/kg, ig administered as single dose; type: organism-based; details: in vivo, po
[4] = Stability in human plasma assessed as compound remaining level at 2 uM incubated for 120 mins at 37 degC by LC-MS/MS analysis; type: ADME, cell-free; details: 2 h
[5] = tested on: Human immunodeficiency virus 1; assay: Antiviral activity against HIV1 Env-pseudotyped virus in human U87.CD4.CCR5 target cells assessed as reduction in viral infection at late stage; type: functional, organism-based; details: Human immunodeficiency virus 1, U87/CD4/CCR5
[6] = tested on: Human immunodeficiency virus 1; assay: Antiviral activity against HIV1 NL4-3 infected in human TZM-bl cells assessed as reduction in virus induced cytopathogenicity incubated for 1 day by luciferase reporter gene assay; type: functional, organism-based; details: Human immunodeficiency virus 1, NL4-3, TZM-bl, 24 h
in vitro [7] = details: human, liver microsomes
Description: Stability in human liver microsomes assessed as compound remaining level incubated for 60 mins in presence of NADPH regenerating system by LC-MS/MS analysis

[8] = molecular target: Structural capsid protein (Human immunodeficiency virus 1) (UniProt Q76129); assay: Inhibition of HIV1 NL4-3 capsid protein assembly at 50 uM measured every 1 min for 19 mins
Chain of Structural capsid protein (Human immunodeficiency virus 1) (Q76129 as listed by the source): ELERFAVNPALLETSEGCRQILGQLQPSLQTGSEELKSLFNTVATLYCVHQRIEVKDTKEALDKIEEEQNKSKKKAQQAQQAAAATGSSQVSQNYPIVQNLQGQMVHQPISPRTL

[9] = Acute toxicity in Kunming mouse assessed as induction of abnormal behaviors by measuring clonic convulsion at 1000 mg/kg, ig administered as single dose; type: organism-based; details: in vivo, po
in vivo [10] = details: Sprague-Dawley, rat, po, 20 mg/kg
[11] = Half life in Sprague-Dawley rat at 20 mg/kg, po measured during 5 mins to 12 hrs by LC-MS analysis; details: in vivo
[12] = AUC (0 to infinity) in Sprague-Dawley rat at 20 mg/kg, po measured during 5 mins to 12 hrs by LC-MS analysis; type: ADME, organism-based; parameters: dose 20 mg/kg, time infinity, route oral; details: in vivo
[13] = Oral bioavailability in Sprague-Dawley rat at 20 mg/kg measured during 5 mins to 12 hrs by LC-MS analysis; type: ADME, organism-based; details: in vivo
[14] = human, microsomes
Description: Intrinsic clearance in human liver microsomes in presence of NADPH regenerating system by LC-MS/MS analysis

[15] = tested on: Human immunodeficiency virus 2; assay: Antiviral activity against HIV2 ROD infected in human MT4 cells assessed as reduction in virus-induced cell death incubated for 5 days by MTT assay; details: Human immunodeficiency virus 2, ISOLATE ROD, MT4, 120 h
[16] = Mean residence time (0 to infinity) in Sprague-Dawley rat at 20 mg/kg, po measured during 5 mins to 12 hrs by LC-MS analysis; details: in vivo
[17] = Acute toxicity in Kunming mouse assessed as induction of abnormal behaviors by measuring ruffled fur at 1000 mg/kg, ig administered as single dose; type: organism-based; details: in vivo, po
[18] = Acute toxicity in Kunming mouse assessed as increase in body weight at 1000 mg/kg, ig administered as single dose; type: organism-based; details: in vivo, po
[19] = Cmax in Sprague-Dawley rat at 2 mg/kg, iv measured during 5 mins to 12 hrs by LC-MS analysis; type: ADME, organism-based; parameters: dose 2 mg/kg, route intravenous; details: in vivo
[20] = AUC (0 to infinity) in Sprague-Dawley rat at 2 mg/kg, iv measured during 5 mins to 12 hrs by LC-MS analysis; type: ADME, organism-based; parameters: dose 2 mg/kg, time infinity, route intravenous; details: in vivo
[21] = Clearance in Sprague-Dawley rat at 2 mg/kg, iv measured during 5 mins to 12 hrs by LC-MS analysis; type: ADME, organism-based; details: in vivo
[22] = Acute toxicity in Kunming mouse assessed as induction of abnormal behaviors by measuring anorexia at 1000 mg/kg, ig administered as single dose; type: organism-based; details: in vivo, po
TZM = assay: Cytotoxicity in uninfected human TZM-bl assessed as reduction in cell viability incubated for 1 day by Cyto-tox-Glo cytotoxicity assay; type: cell-based; details: 24 h
MT4 = assay: Cytotoxicity in mock-infected human MT4 assessed as reduction in cell viability incubated for 5 days by MTT assay; type: cell-based; details: mt4, 120 h
[23] = AUC (0 to t) in Sprague-Dawley rat at 2 mg/kg, iv measured during 5 mins to 12 hrs by LC-MS analysis; type: ADME, organism-based; parameters: dose 2 mg/kg, time 0.083-12 hr, route intravenous; details: in vivo
[24] = Half life in Sprague-Dawley rat at 2 mg/kg, iv measured during 5 mins to 12 hrs by LC-MS analysis; details: in vivo
[25] = tested on: Human immunodeficiency virus 1; assay: Antiviral activity against HIV1 3B infected in human MT4 cells assessed as reduction in virus-induced cell death incubated for 5 days by MTT assay; type: functional, organism-based; details: Human immunodeficiency virus 1, 3B, MT4, 120 h
[26] = Volume of distribution in Sprague-Dawley rat at 2 mg/kg, iv measured during 5 mins to 12 hrs by LC-MS analysis; type: ADME, organism-based; details: in vivo
in vivo [27] = details: Sprague-Dawley, rat, iv, 2 mg/kg
[28] = tested on: Human immunodeficiency virus 1; assay: Antiviral activity against HIV1 Env-pseudotyped virus in human U87.CD4.CCR5 target cells assessed as reduction in viral infection at early stage; type: functional, organism-based; details: Human immunodeficiency virus 1, U87/CD4/CCR5
in vitro [29] = details: human, liver microsomes; remark: listed apart in the source
Description: Stability in human liver microsomes assessed as compound remaining level incubated for 60 mins in absence of NADPH regenerating system by LC-MS/MS analysis

[30] = Mean residence time (0 to infinity) in Sprague-Dawley rat at 2 mg/kg, iv measured during 5 mins to 12 hrs by LC-MS analysis; details: in vivo

With `COc1ccc(N(C)C(=O)[C@H](Cc2ccccc2)NC(=O)CN2CCN(S(=O)(=O)c3ccc(N)cc3)CC2=O)cc1` the Cmax [1] was 83.8 ng/mL, the Activity [2] was “Non-Toxic” and the Activity [3] was “Non-Toxic”. The Stability [4] was 88.5%, the IC50 [5] was 240 nM and the EC50 [6] was 90 nM. The remaining at 1 h (in vitro [7]) was 0%, the inhibition [8] was “Active” and the Activity [9] was “Non-Toxic”. The Tmax (in vivo [10]) was 15 min, the half-life [11] was 72 min and the AUC [12] was 120.6 ng·h/mL. The F [13] was 23%, the CLH [14] was 342 µL/min/mg and the EC50 [15] was 31 nM. The MRT inf [16] was 108 min, the Activity [17] was “Non-Toxic” and the Activity [18] was “Non-Toxic”. The Cmax [19] was 1280 ng/mL, the AUC [20] was 511.5 ng·h/mL and the clearance [21] was 67.7 mL/min/kg. For the same molecule, the Activity [22] was “Non-Toxic”, the CC50 (TZM) was over 34500 nM and the CC50 (MT4) was 179000 nM. It also gave an AUC(0-t) [23] of 506 ng·h/mL, a half-life [24] of 60 min and an EC50 [25] of 210 nM. It also gave a Vd [26] of 5.75 L/kg, a Tmax (in vivo [27]) of 4.98 min and an IC50 [28] of 8.96 nM. It also gave a remaining at 1 h (in vitro [29]) of 93.4% and an MRT inf [30] of 42 min.
